From patent publication US8673554B2, “Multiplex cell signalling assays” (Ge Healthcare UK Limited, priority 2008, dated 2014)

Key:
Format in all cases: cell-based, human
U2OS cells [1] = experiment: Cell-associated IL-6, chemiluminescent anti-IL-6-HRP assay on LEADSEEKER imaging system, same cells after the calcium transient; settings: after stimulation (A23187 4 hours, histamine overnight); FIG. 3 / FIG. 5
Method: Cells were contacted with the test agent (calcium ionophore A23187) for 4 hours and cell-associated IL-6 measured post cell-stimulation with the test agent. After stimulation, the cell supernatant was decanted, the cells were washed thoroughly X3 with PBS, before incubating with the anti-IL-6 antibody. The cells were washed ×3 with PBS before addition of the chemiluminescent substrate. Results from the calcium transient were obtained prior to the IL-6 results using the same population of cells. The results (FIG. 3) were obtained using a […] ™ Multimodality Imaging System, exposing for 20 seconds, using the chemiluminescent substrate and the luminescent signal reporter (anti-IL-6 labelled with the enzyme horseradish peroxidise).
The results were obtained on the […] ™ Multimodality Imaging System, exposing for 20 seconds, using the chemiluminescent substrate and the luminescent signal reporter (anti-IL-6 labelled with the enzyme horseradish peroxidise).
iv) 5 mg of calcium ionophore A23187 was dissolved in 1 ml of DMSO. The ionophore was subsequently diluted in complete maintenance buffer to give final concentration of ionophore over the range of 1.56-100 μM. Fluo-4 dye was prepared by adding 456 μl DMSO to a 50 μg vial, and the vial was mixed well to provide a Fluo-4 stock concentration of 100 μM. […]

[2] = system: EGFP-NFATc1 transfected U2OS cells; experiment: EGFP-NFATc1 translocation assay, Nuclear Trafficking Analysis module; settings: 60 minutes incubation; FIG. 11 / FIG. 14
Excerpt: The present patent specification describes a method for monitoring the NFATC1 signalling pathway with a cell-secreted, cell-associated analyte. The assay method is based on the intracellular translocation of an EGFP-NFATc1 fusion protein in stably transfected mammalian cells. NFATc1 is a transcription factor involved in T-cell signalling and tissue development. […] Following activation with agonists these translocate to the nucleus.
The NFAT assay is optimised for image acquisition and analysis on the IN Cell Analysis System (GE Healthcare) using the Nuclear Trafficking-Analysis Module, although the assay can be imaged on other systems. The Nuclear Trafficking-Analysis Module measures the degree of EGFP-NFAT translocation from the cytoplasm to the nucleus on the addition of agonists.
• 1. Incubate the microplate at 37° C., 5% CO2 and 95% humidity. • 2. The day before commencing the assay, seed at 1×10^4 cells per well in 200 μl of growth medium. Incubate for 24 hours at 37° C. If one of the wells on the cell plate is used for flat field correction, it should not contain cells. • 3. […]
• 1. […] Cells were contacted with test agent for a further 3-18 hours and cell associated TNF, IL-8 or PDGF was measured post stimulation with test agent. • 8. […] The results were analysed using an object intensity algorithm (IN Cell Investigator software). […]

U2OS cells [3] = experiment: Calcium transient (Fluo-4 fluorescence) in stimulated U2OS cells, IN Cell Analyzer 1000; settings: for cytosolic intracellular calcium (emitted fluorescence of Fluo-4): test agent 1.56-100 μM, over eight minutes, peak and decline, dose dependent, FIG. 1 / FIG. 4
Method: i) U2OS cells were seeded into 96-well Greiner cluster plates at 6000 cell/well in 100 μl of complete McKoys media and incubated overnight at 37° C., 5% CO2.
ii) Loading buffer was prepared with 42.8 ml of calcium flux buffer with 6.65 ml of 7.5% albumin This buffer was stored at 37° C.
iii) 120 ml of maintenance buffer was prepared with 118.16 ml calcium flux buffer and 1840 μl of 7.5% albumin

U2OS cells [4] = experiment: Cell-associated IL-6 immunocytochemistry (Cy5 second antibody) combined with intracellular calcium, IN Cell Analyzer 1000; settings: 4 hours contact; Example 4, FIG. 8
Method: 4. Combination Assay of Intracellular Calcium and Human Interleukin-6 from Calcium Ionophore A23187-Stimulated U2OS Cells on IN Cell Analyzer 1000 4.1 Materials Anti-IL-6 (R&D Systems) Goat anti-human IgG CY™ 5 linked (GE Healthcare) Calcium ionophore A23187 (Sigma) U2OS cells (European Collection of Cell Cultures, Porton Down, UK) 4.2 Method and Results i) U2OS cells were seeded into 96-well tissue culture plates at 6000 cell/well in 100 μl of complete McKoys media and incubated overnight at 37° C., 5% CO2. ii) Cells were stimulated with A23187 for 8 minutes before measurement of a calcium transient on an IN Cell Analyzer 1000 as described in Example 1. […] The results from this assay were measured on an IN Cell Analyzer 1000 using a 10× objective, 505 light pass dichroic 475/535 filter set 200 ms exposure. […] Cells were contacted with the test agent (calcium ionophore A23187) for 4 hours and cell-associated IL-6 measured post cell-stimulation with test agent. After stimulation with the ionophore, the supernatant was decanted and the cells were washed thoroughly X3 with PBS. […] The results were analysed using an object intensity algorithm (IN Cell Investigator software). […]

[5] = system: EGFP-NFAT1c transfected U2OS cells; experiment: Cell-associated PDGF immunofluorescence combined with EGFP-NFAT1c translocation; settings: further 3-18 hours contact; FIG. 12
Method: • 1. The day before commencing the assay, seed EGFP-NFATc1 transfected U2OS cells at 1×10^4 cellsper well in 200 μl of growth medium. • 2. On the day of the assay, prepare the test agent (ionomycin, ionomycin+PMA, A23187). These samples are typically prepared in assay medium. • 3. Decant the growth medium from the cell plate, removing all excess liquid and add 200 μl. Using the cell culture medium, wash the cells. Decant the wash. • 4. Add […] assay medium containing test agent. Incubate for 60 minutes. • 5. The total volume is 200 μl. After the suitable incubation period, image the plate on the IN Cell Analyzer 1000 using appropriate filters and dichroic mirror. • 6. Carry out the data analysis using the Nuclear Trafficking Analysis module. • 7. Cells were contacted with test agent for a further 3-18 hours and cell associated TNF, IL-8 or PDGF was measured post stimulation with test agent. • 8. After stimulation with the test agent, the supernatant was decanted and the cells were washed ×3 with PBS. […] The results were analysed using an object intensity algorithm (IN Cell Investigator software). […]

Row | Structure (SMILES) | cell-associated IL-6 (U2OS cells [1]) | EGFP-NFAT1c translocation [2] | intracellular calcium compared with the unstimulated (zero ionophore) control (U2OS cells [3]; 1.56 μM ionophore, 8 minutes stimulation, FIG. 7) | intracellular calcium with increasing concentration of the ionophore (U2OS cells [3]; Example 4, FIG. 8) | cytosolic intracellular calcium (emitted fluorescence of Fluo-4) (U2OS cells [3]) | cell-associated IL-6 with increasing concentration of the ionophore (U2OS cells [4]) | cell-associated PDGF release [5]
1 | CNc1ccc2oc(C[C@H]3O[C@@]4(CC[C@H]3C)O[C@H]([C@H](C)C(=O)c3ccc[nH]3)[C@H](C)C[C@H]4C)nc2c1C(=O)O [calcium ionophore A23187, Calcium ionophore A23187] | increase in cell-associated IL-6 | EGFP-NFAT1c cell response | increase in intracellular calcium | dose-dependent rise | increase in cytosolic intracellular calcium | dose-dependent rise | 
2 | NCCc1c[nH]cn1 [histamine, Histamine] | increase in cell-associated IL-6 |  |  |  | increase in cytosolic intracellular calcium |  | 
3 | C[C@H](CCC(=O)O)C[C@H](C)C[C@H](C)C(=O)/C=C(\O)[C@H](C)C[C@H](C)C/C=C/[C@@H](C)[C@@H](O)[C@@H](C)[C@@H](O)C[C@@H]1CC[C@@](C)([C@H]2CC[C@@](C)([C@@H](C)O)O2)O1 [ionomycin, Ionomycin] |  | EGFP-NFAT1c cell response |  |  |  |  | PDGF release
